Biological target: Glutamate receptor ionotropic, NMDA 1 (Rattus norvegicus, UniProt P35439)
Assay: Affinity measured by using [3H]5,7-dichlorokynurenic acid (DCKA) for the glycine binding site of NMDA receptor

SMILES	Ki [nM]
C[C@H]1C[C@@H](CC(=O)Nc2ccccc2)n2c(=O)c(=O)[nH]c3cc(Br)cc1c32	17.1
C[C@H]1C[C@@H](CC(=O)O)n2c(=O)c(=O)[nH]c3cc(Br)cc1c32	42
C[C@@H]1C[C@@H](CC(=O)O)n2c(=O)c(=O)[nH]c3cc(Br)cc1c32	38.3
CC(C)[C@H]1Cc2cc(Br)cc3[nH]c(=O)c(=O)n(c23)[C@@H]1CC(=O)O	8.4
O=C(O)C[C@@H]1CCc2cc(Br)cc3[nH]c(=O)c(=O)n1c23	9.9
CC[C@H]1Cc2cc(Br)cc3[nH]c(=O)c(=O)n(c23)[C@@H]1CC(=O)Nc1ccccc1	3.8
C[C@@H]1C[C@@H](CC(=O)Nc2ccccc2)n2c(=O)c(=O)[nH]c3cc(Br)cc1c32	7.4
CC(C(=O)Nc1ccccc1)[C@@H]1CCc2cc(Br)cc3[nH]c(=O)c(=O)n1c23 (stereo in doubt; 23b)	665
CC(C(=O)O)[C@@H]1CCc2cc(Br)cc3[nH]c(=O)c(=O)n1c23 (stereo in doubt; 24a)	300
CC(C(=O)Nc1ccccc1)[C@@H]1CCc2cc(Br)cc3[nH]c(=O)c(=O)n1c23 (stereo in doubt; 24b)	590

Further compounds by falling Ki, results first:

Ki [nM]	SMILES
760	C[C@@]1(CC(=O)Nc2ccccc2)CCc2cc(Br)cc3[nH]c(=O)c(=O)n1c23
451	C[C@@]1(CC(=O)O)CCc2cc(Br)cc3[nH]c(=O)c(=O)n1c23
241	CC(C(=O)O)[C@@H]1CCc2cc(Br)cc3[nH]c(=O)c(=O)n1c23 (stereo in doubt; 23a)
29.6	C[C@@H]1Cc2cc(Br)cc3[nH]c(=O)c(=O)n(c23)[C@@H]1CC(=O)O
21	C[C@@H]1Cc2cc(Br)cc3[nH]c(=O)c(=O)n(c23)[C@@H]1CC(=O)Nc1ccccc1
3.3	C[C@H]1Cc2cc(Br)cc3[nH]c(=O)c(=O)n(c23)[C@@H]1CC(=O)O
3	C[C@H]1Cc2cc(Br)cc3[nH]c(=O)c(=O)n(c23)[C@@H]1CC(=O)Nc1ccccc1
2.6	O=C(C[C@@H]1CCc2cc(Br)cc3[nH]c(=O)c(=O)n1c23)Nc1ccccc1
1.4	CC[C@H]1Cc2cc(Br)cc3[nH]c(=O)c(=O)n(c23)[C@@H]1CC(=O)O
